Results reported in ChEMBL document CHEMBL3045432, “Synthesis and Fungicidal Activity of -Cyanoacetamide Derivatives: Discovery of a New Rice Blast Fungicide, Diclocymet (S-2900)” (2002).
In brackets after ≈: the same amount, converted by molar mass.

What was measured:
Format in all cases: functional
Pyricularia grisea [1] = test: Fungicidal activity against Magnaporthe grisea in rice plant assessed as prevention from rice blast disease measured as lesions under greenhouse at > 200 ppm for 8 days by foliar spray compound treated before inoculation
Pyricularia grisea [2] = test: Fungicidal activity against Magnaporthe grisea in rice plant assessed as prevention from rice blast disease measured as lesions under greenhouse at > 200 ppm for 8 days by soil drench compound treated before inoculation
Pyricularia grisea [3] = test: Fungicidal activity against Magnaporthe grisea in rice plant assessed as rice blast disease measured as damage under greenhouse at 0.4 ppm for 8 days by foliar spray compound treated before inoculation
Pyricularia grisea [4] = test: Fungicidal activity against Magnaporthe grisea in rice plant assessed as rice blast disease measured as damage under greenhouse by foliar spray for 8 days compound treated before inoculation; conditions: 192 h
Pyricularia grisea [5] = test: Fungicidal activity against Magnaporthe grisea in rice plant assessed as rice blast disease measured as damage under greenhouse at 6.3 ppm for 8 days by foliar spray compound treated before inoculation
Pyricularia grisea [6] = test: Fungicidal activity against Magnaporthe grisea in rice plant assessed as rice blast disease measured as damage under greenhouse at 1.6 ppm for 8 days by foliar spray compound treated before inoculation
Pyricularia grisea [7] = test: Fungicidal activity against Magnaporthe grisea in rice plant assessed as rice blast disease measured as damage under greenhouse at 25 ppm for 8 days by foliar spray compound treated before inoculation
Pyricularia grisea [8] = test: Fungicidal activity against Magnaporthe grisea in rice plant assessed as prevention from rice blast disease measured as lesions under greenhouse at 3.1 ppm for 8 days by foliar spray compound treated before inoculation
Pyricularia grisea [9] = test: Fungicidal activity against Magnaporthe grisea in rice plant assessed as prevention from rice blast disease measured as lesions under greenhouse at 50 ppm for 8 days by soil drench compound treated before inoculation
Pyricularia grisea [10] = test: Fungicidal activity against Magnaporthe grisea in rice plant assessed as prevention from rice blast disease measured as lesions under greenhouse at 12.5 ppm for 8 days by foliar spray compound treated before inoculation
Pyricularia grisea [11] = test: Fungicidal activity against Magnaporthe grisea in rice plant assessed as prevention from rice blast disease measured as lesions under greenhouse at 12.5 ppm for 8 days by soil drench compound treated before inoculation
Pyricularia grisea [12] = test: Fungicidal activity against Magnaporthe grisea in rice plant assessed as prevention from rice blast disease measured as lesions under greenhouse at 50 ppm for 8 days by foliar spray compound treated before inoculation
Pyricularia grisea [13] = test: Fungicidal activity against Magnaporthe grisea in rice plant assessed as prevention from rice blast disease measured as lesions under greenhouse at 200 ppm for 8 days by foliar spray compound treated before inoculation
Pyricularia grisea [14] = test: Fungicidal activity against Magnaporthe grisea in rice plant assessed as prevention from rice blast disease measured as lesions under greenhouse at 200 ppm for 8 days by soil drench compound treated before inoculation

For CC(NC(=O)C(C#N)C(C)(C)C)c1ccc(Cl)cn1 (stereo unspecified), the Activity (Pyricularia grisea [1]) was “<=10%” and the Activity (Pyricularia grisea [2]) was “<=10%”.
C[C@@H](NC(=O)[C@@H](C#N)C(C)(C)C)c1ccc(Cl)cc1Cl showed an Activity (Pyricularia grisea [3]) of 0%, an MIC (Pyricularia grisea [4]) of 0.16 mg/L (≈ 0.511 µM) and an Activity (Pyricularia grisea [5]) of 3%. The Activity (Pyricularia grisea [6]) was 2% and the Activity (Pyricularia grisea [7]) was 4%.
With C=CC(C)(C)C(C#N)C(=O)NC(C)c1ccc(Cl)cc1OC (stereo unspecified) the Activity (Pyricularia grisea [8]) was “<=10%” and the Activity (Pyricularia grisea [9]) was “<=10%”.
C[C@H](NC(=O)[C@H](C#N)C(C)(C)C)c1ccc(Cl)cc1Cl gave an Activity (Pyricularia grisea [3]) of 0%, an MIC (Pyricularia grisea [4]) greater than 20 mg/L and an Activity (Pyricularia grisea [5]) of 0%. It also gave an Activity (Pyricularia grisea [6]) of 0% and an Activity (Pyricularia grisea [7]) of 0%.
For C=CC(C)(C)C(C#N)C(=O)NC(C)c1ccc(Cl)cc1Cl (stereo unspecified), the Activity (Pyricularia grisea [10]) was “<=10%” and the Activity (Pyricularia grisea [9]) was “<=10%”.
For C=CC(C)(C)C(C#N)C(=O)NC(C)c1ccc(Cl)cc1C (stereo unspecified), the Activity (Pyricularia grisea [2]) was “<=10%”.
C[C@@H](NC(=O)[C@H](C#N)C(C)(C)C)c1ccc(Cl)cc1Cl gave an Activity (Pyricularia grisea [3]) of 3%, an MIC (Pyricularia grisea [4]) of 0.04 mg/L (≈ 0.128 µM) and an Activity (Pyricularia grisea [5]) of 4%. For the same compound, the Activity (Pyricularia grisea [6]) was 4% and the Activity (Pyricularia grisea [7]) was 5%.
C[C@H](NC(=O)[C@@H](C#N)C(C)(C)C)c1ccc(Cl)cc1Cl gave an Activity (Pyricularia grisea [3]) of 0%, an MIC (Pyricularia grisea [4]) greater than 20 mg/L and an Activity (Pyricularia grisea [5]) of 0%. It also gave an Activity (Pyricularia grisea [6]) of 0% and an Activity (Pyricularia grisea [7]) of 0%.
In the case of C=CC(C)(C)C(C#N)C(=O)NC(C)c1ccc(Cl)cc1F (stereo unspecified), the Activity (Pyricularia grisea [8]) is reported as “<=10%” and the Activity (Pyricularia grisea [11]) is reported as “<=10%”.
For CC(NC(=O)C(C#N)C(C)(C)C)c1ccc(Cl)c(Cl)c1 (stereo unspecified), the Activity (Pyricularia grisea [9]) was “<=10%” and the Activity (Pyricularia grisea [12]) was “<=10%”.
With CC(NC(=O)C(C#N)C(C)(C)C)c1ccc(Cl)cc1Cl (stereo unspecified) the Activity (Pyricularia grisea [8]) was “<=10%” and the Activity (Pyricularia grisea [9]) was “<=10%”.
CC(NC(=O)C(C#N)C(C)(C)C)c1ccc(OC(F)(F)C(F)F)cc1 (stereo unspecified) was tested, and the Activity (Pyricularia grisea [13]) was “<=10%” and the Activity (Pyricularia grisea [14]) was “<=10%”.
With CC(NC(=O)C(C#N)C(C)(C)C)c1ccccc1Cl (stereo unspecified) the Activity (Pyricularia grisea [14]) was “<=10%”.
In the case of CC(NC(=O)C(C#N)C(C)(C)C)c1cccc(Cl)c1 (stereo unspecified), the Activity (Pyricularia grisea [13]) is reported as “<=10%” and the Activity (Pyricularia grisea [14]) is reported as “<=10%”.
CC(NC(=O)C(C#N)C(C)(C)C)c1ccc(OC(F)F)cc1 (stereo unspecified) was tested, and the Activity (Pyricularia grisea [9]) was “<=10%” and the Activity (Pyricularia grisea [12]) was “<=10%”.
In the case of CC(NC(=O)C(C#N)C(C)(C)C)c1ccc(OC(F)(F)F)cc1 (stereo unspecified), the Activity (Pyricularia grisea [9]) is reported as “<=10%” and the Activity (Pyricularia grisea [12]) is reported as “<=10%”.
With CC(NC(=O)C(C#N)C(C)(C)C)c1ccc(C(F)(F)F)cc1 (stereo unspecified) the Activity (Pyricularia grisea [8]) was “<=10%” and the Activity (Pyricularia grisea [9]) was “<=10%”.
With Cc1ccc(C(C)NC(=O)C(C#N)C(C)(C)C)cc1 (stereo unspecified) the Activity (Pyricularia grisea [8]) was “<=10%” and the Activity (Pyricularia grisea [9]) was “<=10%”.
For COc1ccc(C(C)NC(=O)C(C#N)C(C)(C)C)cc1 (stereo unspecified), the Activity (Pyricularia grisea [13]) was “<=10%” and the Activity (Pyricularia grisea [14]) was “<=10%”.
For CC(C)(C)C(C#N)C(=O)Nc1ccc(Cl)cc1 (stereo unspecified), the Activity (Pyricularia grisea [1]) was “<=10%” and the Activity (Pyricularia grisea [2]) was “<=10%”.
In the case of CC(C)(C)C(C#N)C(=O)NCc1ccc(Cl)cc1 (stereo unspecified), the Activity (Pyricularia grisea [13]) is reported as “<=10%” and the Activity (Pyricularia grisea [14]) is reported as “<=10%”.
With CCC(NC(=O)C(C#N)C(C)(C)C)c1ccc(Cl)cc1 (stereo unspecified) the Activity (Pyricularia grisea [1]) was “<=10%” and the Activity (Pyricularia grisea [2]) was “<=10%”.
With CC(NC(=O)C(C#N)C(C)(C)C)c1ccc(Cl)nc1 (stereo unspecified) the Activity (Pyricularia grisea [2]) was “<=10%” and the Activity (Pyricularia grisea [13]) was “<=10%”.
In the case of CC(NC(=O)C(C#N)C(C)(C)C)c1ccc(Cl)s1 (stereo unspecified), the Activity (Pyricularia grisea [2]) is reported as “<=10%” and the Activity (Pyricularia grisea [13]) is reported as “<=10%”.
CC(NC(=O)C(C#N)C(C)(C)C)c1ccccc1 (stereo unspecified) was tested, and the Activity (Pyricularia grisea [2]) was “<=10%” and the Activity (Pyricularia grisea [13]) was “<=10%”.
With CC(NC(=O)C(C#N)C(C)(C)C)c1ccc(F)cc1 (stereo unspecified) the Activity (Pyricularia grisea [2]) was “<=10%” and the Activity (Pyricularia grisea [13]) was “<=10%”.
In the case of CC(NC(=O)C(C#N)C(C)(C)C)c1ccc(Br)cc1 (stereo unspecified), the Activity (Pyricularia grisea [8]) is reported as “<=10%” and the Activity (Pyricularia grisea [11]) is reported as “<=10%”.
CC(C)NC(=O)C(C#N)C(C)(C)C (stereo unspecified) was tested, and the Activity (Pyricularia grisea [1]) was “<=10%” and the Activity (Pyricularia grisea [2]) was “<=10%”.
With CC(C)C(C)NC(=O)C(C#N)C(C)(C)C (stereo unspecified) the Activity (Pyricularia grisea [1]) was “<=10%” and the Activity (Pyricularia grisea [2]) was “<=10%”.
CC(NC(=O)C(C#N)=C1CCCC1)c1ccc(Cl)cc1 (stereo unspecified) was tested, and the Activity (Pyricularia grisea [13]) was “<=10%” and the Activity (Pyricularia grisea [14]) was “<=10%”.
In the case of CC(NC(=O)C(C#N)=C1CCCCC1)c1ccc(Cl)cc1 (stereo unspecified), the Activity (Pyricularia grisea [1]) is reported as “<=10%” and the Activity (Pyricularia grisea [2]) is reported as “<=10%”.
For CCC(CC)=C(C#N)C(=O)NC(C)c1ccc(Cl)cc1 (stereo unspecified), the Activity (Pyricularia grisea [14]) was “<=10%” and the Activity (Pyricularia grisea [12]) was “<=10%”.
With CC(NC(=O)C1(C#N)CC1(C)C)c1ccc(Cl)cc1 (stereo unspecified) the Activity (Pyricularia grisea [1]) was “<=10%” and the Activity (Pyricularia grisea [2]) was “<=10%”.
